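Tested at 5 concentrations; 48 h exposure; 96-well plates; endpoints linearly interpolated, else capped at highest concentration. Abbreviation: GI50, concentration required for 50% inhibition of growth.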 Activity calls are given as the source filed them. No stated cut-off is given here; in the data, active = GI50 up to about 1.1 µM and inactive = higher.
Key:
Assay in all cases: NCI tumour cell line growth inhibition, 48 h
SK-OV-3 = tested on: SK-OV-3
MDA-MB-231 = tested on: MDA-MB-231
COLO 205 = tested on: COLO 205
BT-549 = tested on: BT-549
HT-29 = tested on: HT-29
SNB-19 = tested on: SNB-19
KM12 = tested on: KM12
SF-539 = tested on: SF-539
NCI-H226 = tested on: NCI-H226
Malme-3M = tested on: Malme-3M
DU-145 = tested on: DU-145
SK-MEL-5 = tested on: SK-MEL-5
TK-10 = tested on: TK-10
SF-268 = tested on: SF-268
HOP-62 = tested on: HOP-62
T47D = tested on: T47D
M14 = tested on: M14
OVCAR-4 = tested on: OVCAR-4
SR = tested on: SR

SMILES	GI50 (SK-OV-3)	GI50 (MDA-MB-231)	GI50 (COLO 205)	GI50 (BT-549)	GI50 (HT-29)	GI50 (SNB-19)	GI50 (KM12)	GI50 (SF-539)	GI50 (NCI-H226)	GI50 (Malme-3M)	GI50 (DU-145)	GI50 (SK-MEL-5)	GI50 (TK-10)	GI50 (SF-268)	GI50 (HOP-62)	GI50 (T47D)	GI50 (M14)	GI50 (OVCAR-4)	GI50 (SR)
O=C(Cn1c(C(=O)c2ccccc2)nc2ccccc21)c1ccccc1	> 100 µM (inactive)	> 100 µM (inactive)	> 100 µM (inactive)	> 100 µM (inactive)	19.2 µM (inactive)	> 100 µM (inactive)	> 100 µM (inactive)	> 100 µM (inactive)	> 100 µM (inactive)	> 96.2 µM (inactive)	> 100 µM (inactive)	> 100 µM (inactive)	> 100 µM (inactive)	> 100 µM (inactive)	26.5 µM (inactive)	> 100 µM (inactive)	> 100 µM (inactive)	96.8 µM (inactive)	> 100 µM (inactive)
COc1cccc(C2CC(C)(O)Oc3cc4c(cc32)OCO4)c1O (stereo not given)	28.5 µM (inactive)	18 µM (inactive)	19.5 µM (inactive)	15.3 µM (inactive)	21.4 µM (inactive)	31 µM (inactive)	12.5 µM (inactive)	17.4 µM (inactive)	17.4 µM (inactive)	29.2 µM (inactive)	22.6 µM (inactive)	9.31 µM (inactive)	39.7 µM (inactive)	31 µM (inactive)	27.4 µM (inactive)	64.4 µM (inactive)	13.5 µM (inactive)	38.8 µM (inactive)	4.63 µM (inactive)
COc1cccc(NC(=O)CC(=O)N2N=C(C)C(/N=N\c3ccc(S(=O)(=O)c4ccc(/N=N/C5C(=O)N(C(=O)CC(=O)Nc6cccc(OC)c6)N=C5C)cc4)cc3)C2=O)c1 (stereo not given)	> 100 µM (inactive)	> 100 µM (inactive)	> 100 µM (inactive)	> 100 µM (inactive)	> 100 µM (inactive)	> 100 µM (inactive)	> 100 µM (inactive)	> 100 µM (inactive)	> 100 µM (inactive)	58.9 µM (inactive)	> 100 µM (inactive)	> 100 µM (inactive)	> 100 µM (inactive)	> 100 µM (inactive)	> 100 µM (inactive)	> 100 µM (inactive)	> 100 µM (inactive)	> 100 µM (inactive)	> 100 µM (inactive)
Cc1ccc(C2=NN=C3C(c4ccccc4)=Nc4ccccc4N3C2)cc1	21 µM (inactive)	19.8 µM (inactive)	9.77 µM (inactive)	20.6 µM (inactive)	11.6 µM (inactive)	16.9 µM (inactive)	26.4 µM (inactive)	19.1 µM (inactive)	12.9 µM (inactive)	5.38 µM (inactive)	3.14 µM (inactive)	6.31 µM (inactive)	0.348 µM (active)	4.49 µM (inactive)	9.98 µM (inactive)	27.2 µM (inactive)	3.64 µM (inactive)	3.18 µM (inactive)	1.56 µM (inactive)
COc1cc(/C=C/C(=N\NS(=O)(=O)c2ccc(C)cc2)c2sc(NNC(C)=O)nc2C)ccc1O	> 100 µM (inactive)	69.2 µM (inactive)	> 100 µM (inactive)	> 100 µM (inactive)	> 100 µM (inactive)	> 100 µM (inactive)	> 100 µM (inactive)	> 100 µM (inactive)	> 100 µM (inactive)	> 100 µM (inactive)	> 100 µM (inactive)	> 100 µM (inactive)	> 100 µM (inactive)	> 100 µM (inactive)	> 100 µM (inactive)	> 100 µM (inactive)	> 100 µM (inactive)	> 100 µM (inactive)	> 100 µM (inactive)
COc1ccc2nc3ccc(OC)cc3c([S+]([O-])Cc3ccccc3)c2c1 (stereo not given)	18.8 µM (inactive)	16 µM (inactive)	7.26 µM (inactive)	14.3 µM (inactive)	3.05 µM (inactive)	18 µM (inactive)	17.8 µM (inactive)	7.73 µM (inactive)	19.4 µM (inactive)	2.42 µM (inactive)	2.07 µM (inactive)	16.8 µM (inactive)	7.71 µM (inactive)	16.9 µM (inactive)	18 µM (inactive)	2.11 µM (inactive)	14.4 µM (inactive)	14.9 µM (inactive)	3.04 µM (inactive)
CCOC(=O)C(SCCO)C(C(=O)OCC)n1cnc2c(N)ncnc21 (stereo not given)	54.7 µM (inactive)	15.5 µM (inactive)	6.03 µM (inactive)	15.3 µM (inactive)	11 µM (inactive)	28.5 µM (inactive)	17.1 µM (inactive)	16.3 µM (inactive)	11.1 µM (inactive)	9.91 µM (inactive)	> 67.3 µM (inactive)	23.1 µM (inactive)	15 µM (inactive)	15.9 µM (inactive)	21.7 µM (inactive)	11.2 µM (inactive)	5.07 µM (inactive)	18.7 µM (inactive)	4.63 µM (inactive)
NCCSS(=O)(=O)CCN	> 100 µM (inactive)	> 100 µM (inactive)	> 100 µM (inactive)	> 100 µM (inactive)	> 100 µM (inactive)	> 100 µM (inactive)	> 100 µM (inactive)	> 100 µM (inactive)	> 100 µM (inactive)	> 100 µM (inactive)	> 100 µM (inactive)	> 100 µM (inactive)	> 100 µM (inactive)	> 100 µM (inactive)	> 100 µM (inactive)	> 100 µM (inactive)	> 100 µM (inactive)	> 100 µM (inactive)	> 100 µM (inactive)
CCOC(=O)C1(C(=O)OCC)Nc2cccnc2N(C)N1	> 100 µM (inactive)	20.2 µM (inactive)	11.6 µM (inactive)	67.3 µM (inactive)	14.7 µM (inactive)	> 100 µM (inactive)	50.1 µM (inactive)	16.6 µM (inactive)	18.4 µM (inactive)	48.1 µM (inactive)	18.7 µM (inactive)	17.4 µM (inactive)	20.9 µM (inactive)	40.6 µM (inactive)	35.5 µM (inactive)	20.1 µM (inactive)	19.3 µM (inactive)	17.7 µM (inactive)	37.1 µM (inactive)
CC(C)/C(Cl)=N\OC(=O)Nc1ccccc1F	19.2 µM (inactive)	8.81 µM (inactive)	2.03 µM (inactive)	14.3 µM (inactive)	24.3 µM (inactive)	> 42.9 µM (inactive)	20.8 µM (inactive)	17.3 µM (inactive)	15.1 µM (inactive)	3.94 µM (inactive)	16.4 µM (inactive)	14.5 µM (inactive)	14.5 µM (inactive)	21 µM (inactive)	> 41.1 µM (inactive)	20.9 µM (inactive)	5.73 µM (inactive)	17.3 µM (inactive)	2.25 µM (inactive)
CCc1c(Cl)nc(Cl)nc1Cl	3.07 µM (inactive)	0.346 µM (active)	0.0764 µM (active)	0.0199 µM (active)	0.121 µM (active)	1.45 µM (inactive)	1.08 µM (active)	0.372 µM (active)	0.0692 µM (active)	0.0509 µM (active)	2.05 µM (inactive)	0.224 µM (active)	1.58 µM (inactive)	0.217 µM (active)	2.09 µM (inactive)	0.339 µM (active)	0.0438 µM (active)	0.867 µM (active)	0.0188 µM (active)
NC(=O)CSc1c2cc(O)ccc2nc2ccc(O)cc12	> 10 µM (inactive)	> 10 µM (inactive)	> 10 µM (inactive)	> 10 µM (inactive)	> 10 µM (inactive)	> 10 µM (inactive)	> 10 µM (inactive)	> 10 µM (inactive)	> 10 µM (inactive)	> 10 µM (inactive)	> 10 µM (inactive)	> 10 µM (inactive)	> 10 µM (inactive)	> 10 µM (inactive)	> 10 µM (inactive)	> 10 µM (inactive)	> 10 µM (inactive)	> 10 µM (inactive)	> 10 µM (inactive)
COc1cc(C2C=C(c3ccccc3)Oc3cc4c(cc32)OCO4)cc(OC)c1OC (stereo not given)	0.191 µM (active)	0.458 µM (active)	0.33 µM (active)	0.632 µM (active)	0.324 µM (active)	3.94 µM (inactive)	0.38 µM (active)	0.265 µM (active)	0.376 µM (active)	0.527 µM (active)	0.361 µM (active)	0.502 µM (active)	> 36.2 µM (inactive)	3.17 µM (inactive)	0.675 µM (active)	2 µM (inactive)	0.35 µM (active)	6.37 µM (inactive)	0.333 µM (active)
O=[N+]([O-])c1ccc2c3c1[C@@H]1O[C@@H]1c1cccc(c1-3)[C@@H]1O[C@H]21	17.4 µM (inactive)	6.44 µM (inactive)	6.47 µM (inactive)	6.11 µM (inactive)	3.48 µM (inactive)	14.6 µM (inactive)	2.72 µM (inactive)	2.02 µM (inactive)	26.6 µM (inactive)	3.49 µM (inactive)	3.1 µM (inactive)	10.7 µM (inactive)	7.78 µM (inactive)	2.56 µM (inactive)	10.2 µM (inactive)	3.35 µM (inactive)	3.24 µM (inactive)	3.35 µM (inactive)	4.21 µM (inactive)
O=c1[nH]c(=O)n(C2CC(O)C(CO)O2)cc1I (stereo not given)	> 100 µM (inactive)	> 100 µM (inactive)	> 100 µM (inactive)	> 100 µM (inactive)	> 100 µM (inactive)	> 100 µM (inactive)	> 100 µM (inactive)	> 100 µM (inactive)	> 100 µM (inactive)	> 100 µM (inactive)	> 100 µM (inactive)	> 100 µM (inactive)	> 100 µM (inactive)	> 100 µM (inactive)	> 100 µM (inactive)	> 100 µM (inactive)	> 70.3 µM (inactive)	> 100 µM (inactive)	38.7 µM (inactive)
